Test results reported in article PMC11845477, “Exploring the principles behind antibiotics with limited resistance” (Nature Communications, 2025).

How the values were obtained:
[1] = system: E. coli ATCC 25922 (SEN) and E. coli NCTC13846 (MDR); assay: microbe, parasite or virus in culture; assay type: cell-based, Escherichia coli; settings: for MIC: across three biological replicates
Experimental: This study focused on multiple bacterial strains, as follows. For the FoR and ALE experiments, 2 strains per species were chosen: E. coli ATCC 25922, K. pneumoniae ATCC 10031, A. baumannii ATCC 17978, and P. aeruginosa ATCC BAA-3107 as sensitive (SEN) strains, and E. coli NCTC13846, K. pneumoniae ATCC 700603, A. baumannii ATCC BAA-1605 and P. aeruginosa LESB58 as multi-drug resistant (MDR) strains. Functional metagenomic screens were performed with E. coli ATCC 25922 and K. pneumoniae ATCC 10031 strains. To determine the dose-kill properties of the different antibiotics, an E. coli strain (ATCC 25922) expressing a yellow fluorescent protein (pZS2R, YFP, CHL^R) and a red fluorescent protein (pZS2R, mCherry, CHL^R) was used.
Unless otherwise indicated, cation-adjusted Mueller-Hinton Broth 2 (MHB, Millipore) medium was used throughout the study, except for SCH79797 (SCH).
(§1) A robotic liquid handling system was used to automatically prepare a 11 to 16-step serial dilution in 384-well microtiter plates (Greiner). A final concentration of 5 × 10^5 bacterial cells per mL were inoculated into each well containing 60 µL MHB medium. Bacterial cultures were incubated at 37 °C with continuous shaking (Infors shaker, 900 rpm with 3 mm throw) for 18 hours (2 replicates from each). Cell growth was monitored by measuring the optical density (OD600 values, using Biotek Synergy microplate reader). MIC was defined as the antibiotic concentration of complete growth inhibition (i.e., OD600 < 0.05). Relative MIC was calculated as follows:1 relativeMIC=MICevolved/MICancestor

[2] = system: E. coli ATCC 25922 (SEN) and E. coli NCTC13846 (MDR); assay: Frequency-of-resistance (FoR) assay, relative MIC of mutants; assay type: cell-based, Escherichia coli; settings: for MIC: Escherichia coli
Experimental: The susceptibility of antibiotics to resistance development was evaluated in two strains of each bacterial species: a multidrug-resistant strain and an antibiotic-sensitive strain of Escherichia coli, Klebsiella pneumoniae, Acinetobacter baumannii, and Pseudomonas aeruginosa. To explore first-step resistance, we previously used a standard protocol for spontaneous frequency-of-resistance analysis (FoR assay) at multiple concentrations of each antibiotic[10],[28],[31]–[33]. […] For all other combinations, approximately 10^10 bacterial cells were exposed to one of each antibiotic on agar plates for two days at concentrations where the given strain is susceptible. We examined resistance levels by contrasting the minimum inhibitory concentration (MICs) of the mutated strains to the original wild-type bacterial strain (i.e., relative MIC).
To estimate the frequency of spontaneous mutations that confer resistance in a microbial population, we conducted a frequency of resistance (FoR) assay following established protocols[10],[31]–[33]. […] Prior to plating, bacteria were grown overnight in MHB medium at 37 °C and 250 RPM, then centrifuged and washed in MHB. All experiments were performed in triplicate, and plates were incubated at 37 °C for 48 hours. Total colony-forming units (CFUs) were determined by plating appropriate dilutions onto antibiotic-free MHB agar. Resistance frequencies were calculated by dividing the number of resistant colonies by the initial viable cell count. From the plates with the highest antibiotic concentration, ten colonies were selected for MIC determination and whole-genome sequencing.
as §1, with “relativeMIC=MICevolved/MICancestor […]” for “relativeMIC=MICevolved/MICancestor”
Supplementary Figure 3. Resistance levels following the frequency of resistance assay across bacterial strains. The level of resistance was measured as the fold change in relative MIC between evolved and ancestral strains. Data are grouped by bacterial strain (A. baumannii (AB), E. coli (EC), K. pneumoniae (KP), and P. aeruginosa (PA)) and categorized as either multidrug-resistant (MDR) or sensitive (SEN). Each data point represents a laboratory evolved line, and boxplots show the median, first and third quartiles, with whiskers indicating the 5th and 95th percentiles. […]
analysis was performed using two-sided Dunn’s post-hoc test with Benjamini-Hochberg correction for multiple comparisons (**/ * indicates p < 0.01/ 0.05). For detailed information on antibiotic and bacterial species, see Supplementary Table 1. For mode of action groups, refer to Table 1. Source data are provided as a Source Data file.

[3] = E. coli NCTC 13846 (EC-MDR), ancestor strain, sheet fig 2a
[4] = EC-MDR, Escherichia coli NCTC 13846, ancestor strain
[5] = EC-SEN, Escherichia coli ATCC 25922, ancestor strain
[6] = Escherichia coli ATCC 25922 (EC-SEN), ancestor strain, sheet fig 2a
[7] = Escherichia coli, Escherichia coli ATCC 25922 (EC-SEN)
[8] = Escherichia coli, Escherichia coli NCTC 13846 (EC-MDR)
[9] = read-out: MIC of evolved line, Escherichia coli ATCC 25922 (EC-SEN), evolved line 1
[10] = read-out: MIC of evolved line, Escherichia coli ATCC 25922 (EC-SEN), evolved line 2
[11] = read-out: MIC of evolved line, Escherichia coli ATCC 25922 (EC-SEN), evolved line 3
[12] = Escherichia coli ATCC 25922 (EC-SEN)
[13] = Escherichia coli NCTC 13846 (EC-MDR)
[14] = ancestor EC-SEN (Escherichia coli ATCC 25922)
[15] = Escherichia coli ATCC 25922 (EC-SEN), evolved line 1
[16] = Escherichia coli ATCC 25922 (EC-SEN), evolved line 2
[17] = Escherichia coli ATCC 25922 (EC-SEN), evolved line 3
[18] = E. coli NCTC 13846 (EC-MDR), evolved line 1
[19] = E. coli NCTC 13846 (EC-MDR), evolved line 2
[20] = E. coli NCTC 13846 (EC-MDR), evolved line 3
[21] = E. coli NCTC 13846 (EC-MDR), evolved line 1, evolved vs ancestor
[22] = E. coli NCTC 13846 (EC-MDR), evolved line 2, evolved vs ancestor
[23] = E. coli NCTC 13846 (EC-MDR), evolved line 3, evolved vs ancestor
[24] = Escherichia coli ATCC 25922 (EC-SEN), evolved line 1 versus ancestor
[25] = Escherichia coli ATCC 25922 (EC-SEN), evolved line 2 versus ancestor
[26] = Escherichia coli ATCC 25922 (EC-SEN), evolved line 3 versus ancestor

| Compound | MIC of ancestor [1, 3] | MIC of ancestor [1, 4] | MIC of ancestor [1, 5] | MIC of ancestor [1, 6] | MIC [1, 7] | MIC [1, 8] | MIC [2, 9] | MIC [2, 10] | MIC [2, 11] | MIC [1, 12] | MIC [1, 13] | MIC of ancestor [1, 14] | MIC of evolved line [2, 15] | MIC of evolved line [2, 16] | Relative MIC [2, 21] | Relative MIC [2, 22] | Relative MIC [2, 23] | Relative MIC [2, 24] | Relative MIC [2, 25] | Relative MIC [2, 26] | further results |
| --- | --- | --- | --- | --- | --- | --- | --- | --- | --- | --- | --- | --- | --- | --- | --- | --- | --- | --- | --- | --- | --- |
| C[C@@H](O)[C@H]1C(=O)N2C(C(=O)O)=C(S[C@@H]3CN[C@H](C(=O)N(C)C)C3)[C@H](C)[C@H]12 [Meropenem] | 0.0156 µg/mL | 0.0156 µg/mL | 0.0312 µg/mL | 0.0312 µg/mL | 0.0312 µg/mL | < 0.0312 µg/mL | 0.0156 µg/mL | 0.0156 µg/mL | 0.0156 µg/mL |  |  |  |  |  |  |  |  |  |  |  | MIC ([2]; read-out: MIC of evolved line, E. coli NCTC 13846 (EC-MDR), evolved line 2): 0.0156 µg/mL |
| Tridecaptin M152-P3 |  |  |  | 4 µg/mL |  |  |  |  |  | 4 µg/mL | 8 µg/mL | 4 µg/mL | 4 µg/mL | 4 µg/mL |  |  |  |  |  |  | MIC of evolved line [2, 17]: 4 µg/mL |
| polymyxin-B | 4 µg/mL |  |  |  |  |  |  |  |  |  |  | 1 µg/mL |  |  |  |  |  |  |  |  | MIC of ancestor ([1]; E. coli ATCC 25922 (EC-SEN), ancestor strain, sheet fig 2a): 1 µg/mL; MIC of ancestor ([1]; Escherichia coli NCTC 13846 (EC-MDR), ancestor): 4 µg/mL; MIC of evolved line ([2]; E. coli ATCC 25922 (EC-SEN), evolved line 1): 4 µg/mL; MIC of evolved line ([2]; E. coli ATCC 25922 (EC-SEN), evolved line 2): 1 µg/mL; MIC of evolved line ([2]; E. coli ATCC 25922 (EC-SEN), evolved line 3): 8 µg/mL; MIC of evolved line [2, 18]: 4 µg/mL; MIC of evolved line [2, 19]: 4 µg/mL; MIC of evolved line [2, 20]: 4 µg/mL |
| C[C@@H](O)[C@H]1C(=O)N2C(C(=O)O)=C(S[C@H]3CC[S@@+]([O-])C3)S[C@H]12 [Sulopenem] | 0.0312 µg/mL |  |  |  |  |  |  |  |  | 0.0625 µg/mL | 0.03125 µg/mL | 0.0312 µg/mL | 0.0156 µg/mL | 0.0156 µg/mL | 2 | 1 | 1 | 1 | 1 | 1 | MIC of ancestor ([1]; ancestor EC-MDR (Escherichia coli NCTC 13846)): 0.0312 µg/mL; MIC of evolved line [2, 18]: 0.0625 µg/mL; MIC of evolved line [2, 19]: 0.0312 µg/mL; MIC of evolved line [2, 20]: 0.0312 µg/mL; MIC of evolved line [2, 17]: 0.0156 µg/mL |
| O=c1ccc2ncc(=O)n3c2n1C[C@H]3CN1CCC(NCc2cc3c(cn2)OCCC3)CC1 [Gepotidacin] | 2 µg/mL | 2 µg/mL | 1 µg/mL | 1 µg/mL | 1 µg/mL | 2 µg/mL |  |  |  |  |  |  |  |  | 1 | 1 | 1 | 1 | 1 | 1 |  |
| CN(C)[C@@H]1C(O)=C(C(N)=O)C(=O)[C@@]2(O)C(O)=C3C(=O)c4c(O)c(NC(=O)CN5CCCC5)cc(F)c4C[C@H]3C[C@@H]12 [Eravacycline] | 1 µg/mL |  | 0.125 µg/mL | 0.125 µg/mL | 0.125 µg/mL | 1 µg/mL | 0.25 µg/mL | 0.125 µg/mL | 0.25 µg/mL |  |  |  |  |  | 2 | 1 | 2 | 2 | 1 | 2 | MIC of ancestor ([1]; Escherichia coli NCTC 13846 (EC-MDR), ancestor strain): 1 µg/mL; MIC ([2]; read-out: MIC of evolved line, E. coli NCTC 13846 (EC-MDR), evolved line 1): 2 µg/mL; MIC ([2]; read-out: MIC of evolved line, E. coli NCTC 13846 (EC-MDR), evolved line 3): 2 µg/mL |
